Results on 8 molecules are retold here after patent publication US5004756A, “Anti-cancer activity potentiator” (priority 1988, dated 1991).

Assay [1] deals with V79/S. Nature of the assay: Anti-cancer activity potentiating action, colony formation, V79/S parent cells (A-III). The class given is cell-based, Chinese hamster. The conditions noted are these: V79/S; for IC50: Cricetulus griseus. How it is done:
(§1) The anti-cancer activity potentiating action of the malate of formula (I) was examined using Chinese hamster cells (sensitive cell line V79/S and ADM-resistant cell line V79/ADM), human hepatoma cells (sensitive cell line PLC/S and colchicin-resistant cell line PLC/Col) and mouse leukemia cells (sensitive cell line L5178Y/S) and aclarubicin-resistant cell line L5178Y/ACR).
(§2) Of these tumor cells, the sensitive cells (400 cells) and the resistant cells (600 cells) were each incubated in 10 ml of Eagle's MEM medium containing 10% bovine serum for 24 hours, and then each of the test drugs indicated in Table 6 was added. Thereafter, the incubation was carried out for 9 days. The concentration (IC50 : micrograms/ml) of the test drug required to inhibit 50% of the colony formation (proliferation) of the tumor cells was calculated.
(§3) (A) Chinese hamster V79 cells
(§4) As anti-cancer agents, there were used adriamycin (ADM), aclarubicin (ACR), actinomycin D (ACD), 5-fluorouracil (5-FU), cytarabin (Ara-C), cisplatin (CDDP), methotrexate (MTX), mitomycin C (MMC), nimustine (ACNU), mitoxantrone, etoposide ([…]), vincristine (VCR), bleomycin (BLM) and peplomycin (PEP). For the sensitive cells, the anti-cancer agents were used in combination with 10 micrograms/ml of the malate of formula (I), and for the resistant cells, the anti-cancer agents were used in combination with the malate of formula (I) 3 micrograms/ml, 5 micrograms/ml, and 10 micrograms/ ml.

Assay [2] has as its system V79/ADM. Nature of the assay: Anti-cancer activity potentiating action, colony formation, V79/ADM resistant cells (A-III). The class given is cell-based, Chinese hamster. To be noted: V79/ADM; for IC50: Cricetulus griseus. How it is done: as §1, §2, §3, §4
The test system of assay [3] is clinically isolated human cancer cells (lung adenocarcinoma, lung squamous cell carcinoma, osteosarcoma, ovarian carcinoma). Nature of the assay: Anti-tumor activity on clinically isolated human cancer cells, morphological changes (A-I Part 2). It is filed as cell-based.
Description: Lung adenocarcinoma, lung squamous cell carcinoma, osteosarcoma and ovarian carcinoma were selected as clinically isolated human cancer cells, and the anti-tumor activities of various drugs were examined. Specifically, various tumor tissues were individually cut to thin pieces by a razor, and by washing in saline by using a 1 mm mesh, the connective tissues were removed. The resulting solution was centrifuged at 1000 rpm for 1 minute to remove necrotizing substances. Washing with saline gave tumor cells.
They were incubated at 37° for 4 to 8 hours. Thereafter, pumping was carried out to disperse the tissue pieces. Then, centrifugation at 1000 rpm for 5 minutes, cell coating and Giemsa staining were performed. The anti-tumor activity of each drug was examined on the basis of observation of the morphological changes of the tumor cells under a microscope.
The experiment was conducted on two examples of each tumor cells (total 8 examples).
Assay [4] concerns V79/ADM. Nature of the assay: Colony formation (proliferation) inhibition, ADM-resistant Chinese hamster cells (A-I Part 1). It is filed as cell-based. To be noted: Cricetulus griseus, 216 h. How it is done: (§5) Sensitive cell line V79/S and ADM-resistant cell line V79/ADM of the Chinese hamster were used, and sensitive cell line PLC/S and cholchicin-resistant cell line PLC/Col, as human hepatoma cells.
(§6) The sensitive cell lines (400 cells) or the resistant cell lines (600 cells) were each incubated for 24 hours in 10 ml of Eagle's MEM medium containing 10% bovine serum. Each of the drugs indicated in Table 1 below was dissolved in ethanol, and 50 microliters of the resulting solution was added to the medium. The incubation was further carried out for 9 days. The concentration of the drug which inhibits 50% of the colony formation (proliferation) of the tumor cells was calculated.
(§7) V79/S and V79/ADM were tested by using all of the drugs described above, but PLC/S and PLC/Col were tested by using only the malate of formula (I), adriamycin and peplomycin.
(§8) The concentrations (micrograms/ml) required to inhibit 50% of the proliferation of the tumor cells, expressed by IC50, are shown in Table 1.

Assay [5] concerns V79/S. Briefly: Colony formation (proliferation) inhibition, sensitive Chinese hamster cells (A-I Part 1). It is filed as cell-based. The conditions noted are these: Cricetulus griseus, 216 h. How it is done: as §5, §6, §7, §8
Setting [6] is: alone, Table 6, read-out: IC50, anti-cancer agent alone.
[7] abbreviates: with compound (I) 10 μg/ml, read-out: IC50 in combination with compound (I).
The mark [8] stands for this setting: with compound (I) 5 μg/ml, read-out: IC50 in combination with compound (I).
[9] abbreviates: with compound (I) 3 μg/ml, read-out: IC50 in combination with compound (I).

Converted amounts (≈) assume the structure as drawn. Where only a bound is given, the exact number is not on record here.

Take `O=c1[nH]cc(F)c(=O)[nH]1` [Example 5-FU, 5-fluorouracil]: the IC50 turned out to be 9.7 µM in the assay on V79/S [1] (setting [6]), 2.1 µM in the assay on V79/S [1] (setting [7]), 7.2 µM in the assay with V79/ADM [2] (setting [6]) and 0.62 µM with V79/ADM [2] (setting [8]). Besides, the Potentiation activity in the assay with V79/S [1] (with compound (I) 10 μg/ml) amounted to 4.6 times; in the assay on V79/ADM [2] (with compound (I) 5 μg/ml), 11.6 times. Also, the “Efficacy ratio (rated significant by Fisher's test)” value in assay [3] (10 μg/ml) is given as 1/8.
In the case of `N[C@@H](Cc1ccc(N(CCCl)CCCl)cc1)C(=O)O` [MPL, melphalan], the “Efficacy ratio (rated significant by Fisher's test)” value in assay [3] (0.5 μg/ml) is on record as 1/8.
With `CN(Cc1cnc2nc(N)nc(N)c2n1)c1ccc(C(=O)N[C@@H](CCC(=O)O)C(=O)O)cc1` [MTX, methotrexate], the IC50 with V79/S [1] (setting [6]) was 0.014 µg/mL; in the assay on V79/S [1] (setting [7]), 0.017 µg/mL; in the assay on V79/ADM [2] (setting [6]), 0.0078 µg/mL; in the assay with V79/ADM [2] (setting [8]), less than 0.0025 µg/mL; with V79/ADM [4], 0.0078 µg/mL (≈ 0.0172 µM); in the assay with V79/S [5], 0.017 µg/mL (≈ 0.0374 µM). In addition, the Potentiation activity with V79/S [1] (with compound (I) 10 μg/ml) is on record as 0.8 times; in the assay on V79/ADM [2] (with compound (I) 5 μg/ml), greater than 3.12 times. Further, in assay [3] (3.0 μg/ml), the “Efficacy ratio (rated significant by Fisher's test)” value is reported as 1/8.
Take `O=C1c2c(O)ccc(O)c2C(=O)c2c(NCCNCCO)ccc(NCCNCCO)c21` [Mitoxantrone, mitoxantrone]: the IC50 was determined as 0.019 µg/mL in the assay on V79/S [1] (setting [6]); 0.0081 µg/mL with V79/S [1] (setting [7]); 0.36 µg/mL in the assay on V79/ADM [2] (setting [6]); 0.074 µg/mL with V79/ADM [2] (setting [9]); 0.36 µg/mL (≈ 0.81 µM) with V79/ADM [4] (V79/ADM, 9 days, Table 1, read-out: IC50); 0.019 µg/mL (≈ 0.0427 µM) in the assay on V79/S [5] (V79/S, 9 days, Table 1, read-out: IC50). Moreover, the Potentiation activity in the assay on V79/S [1] (with compound (I) 10 μg/ml) is on record as 2.3 times; with V79/ADM [2] (with compound (I) 3 μg/ml), 4.9 times.
Take `CC[C@]1(O)C[C@H]2CN(CCc3c([nH]c4ccccc34)[C@@](C(=O)OC)(c3cc4c(cc3OC)N(C=O)[C@H]3[C@@](O)(C(=O)OC)[C@H](OC(C)=O)[C@]5(CC)C=CCN6CC[C@]43[C@@H]65)C2)C1` [VCR, vincristine]: the IC50 with V79/S [1] (setting [6]) worked out at 0.0271 µg/mL; in the assay with V79/S [1] (setting [7]), 0.00325 µg/mL; with V79/ADM [2] (setting [6]), 0.73 µg/mL; in the assay on V79/ADM [2] (setting [9]), 0.0351 µg/mL. Besides, the Potentiation activity with V79/S [1] (with compound (I) 10 μg/ml) was 8.3 times; with V79/ADM [2] (with compound (I) 3 μg/ml), 20.8 times. The “Efficacy ratio (rated significant by Fisher's test)” value in assay [3] (0.1 μg/ml) is 2/8.
In the case of `CC[C@]1(O)C[C@@H]2CN(CCc3c([nH]c4ccccc34)[C@@](C(=O)OC)(c3cc4c(cc3OC)N(C)[C@H]3[C@@](O)(C(N)=O)[C@H](O)[C@]5(CC)C=CCN6CC[C@]43[C@@H]65)C2)C1` [VDS, vindesine], the “Efficacy ratio (rated significant by Fisher's test)” value in assay [3] (0.5 μg/ml) is recorded as 0/8.
In the case of `CC[C@]1(O)C[C@@H]2CN(CCc3c([nH]c4ccccc34)[C@@](C(=O)OC)(c3cc4c(cc3OC)N(C)[C@H]3[C@@](O)(C(=O)OC)[C@H](OC(C)=O)[C@]5(CC)C=CCN6CC[C@]43[C@@H]65)C2)C1` [VLB, vinblastine], the “Efficacy ratio (rated significant by Fisher's test)” value in assay [3] (0.1 μg/ml) is listed as 3/8.
Regarding bleomycin [BLM], the “IC50, anti-cancer agent alone” value is 2.1 µg/mL in the assay with V79/S [1] (alone, Table 6) and 0.56 µg/mL with V79/ADM [2] (alone, Table 6). In addition, the “IC50 in combination with compound (I)” value came to 0.01 µg/mL with V79/S [1] (with compound (I) 10 μg/ml) and 0.0385 µg/mL in the assay on V79/ADM [2] (with compound (I) 3 μg/ml). Further, the Potentiation activity was 202 times in the assay with V79/S [1] (with compound (I) 10 μg/ml) and 14.5 times in the assay with V79/ADM [2] (with compound (I) 3 μg/ml). The “Efficacy ratio (rated significant by Fisher's test)” value in assay [3] (1.0 μg/ml) was 2/8.

Usually IC50 stands for the midpoint of a concentration-inhibition curve.
